Results taken from patent publication US20060105330A1, “Diagnostics and remedies for malignant brain tumor” (Institute of gene and brain science, priority 2002, published 2006).

System: RFX1 gene expression in human glioma U251 cells
Experiment: RFX1 gene re-expression by 5-azacytidine and trichostatin A treatment, RT-PCR
Assay type: cell-based
Details: single inhibitor, compared with the control, 5-azacytidine 500 nM for 3 days, trichostatin A 500 ng/ml for 24 hours
Procedure: Total RNAs derived from human glioma tissues (GB4, GB13, GB16, and GB17) and human glioma cell lines were extracted with Trizol (manufactured by GIBCO), and total RNAs of normal tissues were purchased from Clontech. cDNAs were synthesized from 10 μg of each of total RNAs using the reverse transcriptase XL (AMV) (manufactured by Takara Shuzo Co., Ltd.) in a final volume of 10 μl. PCR was performed in the system in a total volume of 25 μl, using 1 μl cDNA template and Takara Taq™ (manufactured by Takara Shuzo Co., Ltd.). […]
The resulting PCR products were electrophoresed on 2% agarose gel and analyzed by ethidium bromide staining.
Human glioma cell lines were plated at a low density, incubated for 24 hours, and then 5-azacytidine (methyltransferase inhibitor) (manufactured by Sigma Chemical Co.) was added at a final concentration of 500 nM. […] PCR was then performed and changes in gene expression were analyzed using each agent.
To investigate the relationship between reduction or loss of expression of the RFX1 and BGT-1 genes in glioma and DNA methylation or histone deacetylation, change in expression of each gene was analyzed using the RT-PCR method, either after treatment of human glioma cell lines with the methyltransferase inhibitor 5-azacytidine and the histone deacetylase inhibitor trichostatin A singly or after treatment of cells with both inhibitors.

## Nc1ncn([C@@H]2O[C@H](CO)[C@@H](O)[C@H]2O)c(=O)n1 [5-azacytidine]
  change in expression of the RFX1 gene (RT-PCR): enhancement of expression

## CC(/C=C/C(=O)NO)=C\[C@@H](C)C(=O)c1ccc(N(C)C)cc1 [trichostatin A]
  change in expression of the RFX1 gene (RT-PCR): enhancement of expression
